Columns and labels:
[1] = tested on: strychnine induced convulsions in rats; assay: Strychnine induced lethal convulsions; format: in vivo, rat
[2] = tested on: pentametazol induced convulsions in rats; assay: Pentametazol induced convulsions; format: in vivo, rat; settings: for Deaths of pretreated animals / Effect on pentametazol convulsions: 10 mg/kg prior to 120 mg/kg s.c. pentametazol
[3] = tested on: electroshock-induced convulsions in rats; assay: Electroshock-induced lethal convulsions; format: in vivo, rat
Male CFY rats = assay: "Conflict" test: water consumption of food-deprived rats without punishment and in punished situation (anti-anxiety versus sedative effect); format: in vivo, rat; settings: for Sedative dose (numerator of ratio): as printed in b54 without unit, see Tables I and III; for Water consumption (ml) punished situation / Water consumption (ml) without punishment: 30 min prior; for Ratio between the sedative and anxiolytic dose: Tables I and III; for Anxiolytic effect in presence of RO-15-1788 (selective benzodiazepine receptor antagonist): Tables II and IV
Description: The essential strategy for measuring the anti-anxiety effecct of a drug is to check its activity in a conflict situation. We elicit a rewarded response, then suppress that response by punishing it when it occurs and the anti-anxiety effect is measured by the drug-induced increase in punished responding, whereas the sedative effect is measured by the drug-induced decrease of unpunished responding.
This means that when we circuit the drinking tube and the grid floor of the cage and the rat is regularly shocked by trying to drink, the very hungry animal, which cannot eat without drinking, is maximally forced to overcome the hindrance. This is a sensitive test to check the anti-anxiety effect of a compound.
Male CFY rats, weighing 230-250 g, fed with standard food pellets and supplied with tap water ad libitum, were kept under controlled standard environmental conditions (room temperature between 22°-24° C.) in groups of ten for two weeks until used in the experiment. The rats kept in single cages during starvation were deprived of food for 96 hours and supplied with tap water ad libitum before the experiment.
Another aspect of the selection of the animals for the experiment was their visible physical fitness and normal activity after starvation.
A clear Plexiglass box (39×27×12 cm) with a stainless-steel grid floor supplied with a tray for the food pellets and with a drinking tube was used for the experiment. The grid floor, the drinking tube and an electric stimulator (Grass S48) were connected and electric shocks in this circuit were delivered for 10 s duration with 20 s intervals. The parameters of the current (100 V; 25 ohm; 7.5 ms; 5 Hz) were empirically selected using those electric shocks which inhibited the water consumption of the very hungry rats to one third of the control (unpunished) level.
The rats spend one hour in the apparatus after 96 hours of food deprivation.
The drugs were administered parenterally in doses of 0.5 ml/100 g body weight. We refrained from the oral administration of the compounds because of the long term food deprivation.
The Student t-test was used for statistical analysis. The anxiolytic effect was established in punished animals and the sedative effect in unpunished rats.

[4] = tested on: picrotoxin induced convulsions in rats; format: in vivo, rat
[5] = Acute toxicity, oral LD50; settings: rat, in vivo, CFY rats, deaths within 48 h, Litchfield and Wilcoxon
Description: Acute toxicity was assessed on CFY rats (100-160 g). Groups of 10 rats were used. Compound A was administered orally (in volume of 10 ml/kg). The animals starved for 16 h before the experiment. Each dose was administered to a group of animals equally subdivided into males and females. Deaths occurring within 48 h were considered. LD50 values were calculated on the basis of the graphical method of Litchfield and Wilcoxon.

benzodiazepine receptors = assay: In vitro binding, 3H-Diazepam displacement on rat brain membrane preparation; settings: 2 nM 3H-Diazepam, rat cortex membranes; for Displacement of 3H-Diazepam from its receptor: 1 hr at 0-4 °C; for IC50 value: both drugs compared
Description: The in vitro binding of compound A in comparison to that of chlordiazepoxide was measured on rat brain membrane preparation. Male CFY rat cortex was homogenized in 0.32M sucrose using glass homogenizer with teflon pestle. Nucleus was spun down at 1000 g for 15 min. The supernatant was centrifuged at 40,000 g for 15 min. The pellet was homogenized in 5 mM TRIS-citrate buffer pH 7.1 by a Polytron P10 and it was lyzed for 15 min. at 0° C. After centrifugation at 40,000 g for 15 min. the pellet was taken up in 50 mM TRIS-citrate buffer pH 7.1 and kept overnight at -20° C. After thawing and centrifugation (40,000 g for 15 min.) the pellet was washed in 50 mM TRIS-citrate buffer pH 7.1 three times by centrifugation. The final pellet was taken up in the same buffer in 1:30 volume. Ligand: 2 nM ^3 H-Diazepam (sp. act. 86 Ci/mmol).
Incubation: 1 hr at 0°-4° C. in 50 mM TRIS-citrate buffer ph 7.1
Final protein concentration: ca. 0.5 mg/ml.
The binding was stopped by dilution with cold buffer and rapid filtration on GF/B Whatman filter paper.
For the displacement we used six different concentrations of drugs, run with 3 parallels. Experiments were repeated two times. Compound A was dissolved in cc. acetic acid and distilled water then the 10^-3 M solution was further diluted with incubation buffer. Blank solution was prepared in the same way without containing the drug. Chlordiazepoxide was dissolved in the incubation buffer.

[6] = up to the oral dose of 200 mg/kg, rats
[7] = pretreatment 200 mg/kg, 120 mg/kg s.c. pentametazol
[8] = chlordiazepoxide 0.05 mg/kg s.c.
[9] = chlordiazepoxide 0.1 mg/kg s.c.
[10] = chlordiazepoxide 0.25 mg/kg s.c.
[11] = chlordiazepoxide 0.5 mg/kg s.c.
[12] = chlordiazepoxide 2.5 mg/kg s.c.

CN1C(=O)CN=C(c2ccccc2)c2cc(Cl)ccc21 [diazepam]
Animals died ([1]; 10 mg/kg, strychnine 2.5 mg/kg s.c.): 80%
Deaths of pretreated animals [2]: none of the pretreated animals died
Effect on pentametazol convulsions [2]: mitigated the convulsions
Rats whose life was saved ([3]; electroshock-induced lethal convulsions, dose not given): 80%

CCSc1c(N)cnc2cc(Cl)ccc12.Cl [compound A, 3-amino-4-ethylthio-7-chloro-quinoline-hydrochloride]
Water consumption (ml) in punished situation (Male CFY rats; Table IV: compound A 5 μg/kg s.c. + RO 15-1788 10 mg/kg i.p.): 3.1 ± 0.69 mL
Water consumption (ml) in punished situation (Male CFY rats; Table IV: compound A 5 μg/kg s.c. + RO 15-1788 20 mg/kg i.p.): 2.4 ± 0.39 mL
Water consumption (ml) in punished situation (Male CFY rats; Table IV: compound A 5 μg/kg s.c., RO 15-1788 none): 4.2 ± 0.37 mL
Sedative dose (numerator of ratio) (Male CFY rats): 2.5
Water consumption (ml) punished situation (Male CFY rats; compound A 0.25 mg/kg s.c.): 3.0 ± 0.27 mL
Water consumption (ml) without punishment (Male CFY rats; compound A 0.25 mg/kg s.c.): 7.7 ± 0.45 mL
Water consumption (ml) punished situation (Male CFY rats; compound A 2.5 mg/kg s.c.): 1.9 ± 0.35 mL
Water consumption (ml) without punishment (Male CFY rats; compound A 2.5 mg/kg s.c.): 4.9 ± 0.91 mL
Water consumption (ml) punished situation (Male CFY rats; compound A 2.5 γ/kg s.c.): 2.2 ± 0.32 mL
Water consumption (ml) without punishment (Male CFY rats; compound A 2.5 γ/kg s.c.): 6.3 ± 0.46 mL
Water consumption (ml) punished situation (Male CFY rats; compound A 5 γ/kg s.c.): 3.8 ± 0.19 mL
Water consumption (ml) without punishment (Male CFY rats; compound A 5 γ/kg s.c.): 6.4 ± 0.33 mL
Water consumption (ml) punished situation (Male CFY rats; compound A 25 γ/kg s.c.): 3.7 ± 0.44 mL
Water consumption (ml) without punishment (Male CFY rats; compound A 25 γ/kg s.c.): 7.9 ± 0.58 mL
Anti-anxiety potency relative to chlordiazepoxide (Male CFY rats; conflict test): about 20 times
Ratio between the sedative and anxiolytic dose (Male CFY rats; conflict test): 500
Anxiolytic effect in presence of RO-15-1788 (selective benzodiazepine receptor antagonist) (Male CFY rats; conflict test): antagonized
Influence on picrotoxin induced lethal convulsions ([4]; pretreated rats, picrotoxin 10 mg/kg s.c.): remained unchanged
Protection against picrotoxin induced convulsions [4, 6]: ineffective
Influence on strychnine induced lethal convulsions ([1]; up to the 200 mg/kg dose level, strychnine 2.5 mg/kg s.c.): not influenced at all
Protection against strychnine induced convulsions [1, 6]: ineffective
Influence on the anticonvulsant effect of diazepam (10 mg/kg) ([2]; compound A 200 mg/kg): no influence
Severity of the pentametazol convulsions [2, 7]: did not change
Survival of pretreated animals [2, 7]: none of the pretreated animals survived
Protection against pentametazol induced convulsions [2, 6]: ineffective
LD50 at 48 h [5]: 465 mg/kg
Displacement of 3H-Diazepam from its receptor (benzodiazepine receptors): concentration dependent manner
IC50 value (benzodiazepine receptors): in the same range of concentration
Animals died ([3]; 200 mg/kg, electroshock-induced lethal convulsions): 70%
Protection against electroshock-induced convulsions [3, 6]: only slightly effective

CCC1(c2ccccc2)C(=O)NC(=O)NC1=O [phenobarbital Na]
Animals died ([4]; 50 mg/kg, picrotoxin 10 mg/kg s.c.): 80%
Animals died ([1]; 50 mg/kg, strychnine 2.5 mg/kg s.c.): 40%
Deaths of pretreated animals [2]: none of the pretreated animals died
Effect on pentametazol convulsions [2]: mitigated the convulsions
Protection against electrogenic convulsions ([3]; 30-50 mg/kg): completely protected

CNC1=Nc2ccc(Cl)cc2C(c2ccccc2)=[N+]([O-])C1 [chlordiazepoxide]
Water consumption (ml) in punished situation (Male CFY rats; Table II: chlordiazepoxide 0.1 mg/kg s.c. + RO 15-1788 5 mg/kg i.p.): 4.1 ± 0.59 mL
Water consumption (ml) in punished situation (Male CFY rats; Table II: chlordiazepoxide 0.1 mg/kg s.c. + RO 15-1788 10 mg/kg i.p.): 3.9 ± 0.43 mL
Water consumption (ml) in punished situation (Male CFY rats; Table II: chlordiazepoxide 0.1 mg/kg s.c. + RO 15-1788 20 mg/kg i.p.): 2.8 ± 0.49 mL
Water consumption (ml) in punished situation (Male CFY rats; Table II: chlordiazepoxide 0.1 mg/kg s.c., RO 15-1788 none): 4.1 ± 0.31 mL
Sedative dose (numerator of ratio) (Male CFY rats): 10
Water consumption (ml) punished situation (Male CFY rats; [8]): 3.5 ± 0.47 mL
Water consumption (ml) without punishment (Male CFY rats; [8]): 5.1 ± 0.56 mL
Water consumption (ml) punished situation (Male CFY rats; [9]): 4.1 ± 0.31 mL
Water consumption (ml) without punishment (Male CFY rats; [9]): 5.8 ± 0.42 mL
Water consumption (ml) punished situation (Male CFY rats; [10]): 3.5 ± 0.62 mL
Water consumption (ml) without punishment (Male CFY rats; [10]): 6.2 ± 0.37 mL
Water consumption (ml) punished situation (Male CFY rats; [11]): 3.1 ± 0.54 mL
Water consumption (ml) without punishment (Male CFY rats; [11]): 7.4 ± 0.77 mL
Water consumption (ml) punished situation (Male CFY rats; chlordiazepoxide 1 mg/kg s.c.): 2.7 ± 0.58 mL
Water consumption (ml) without punishment (Male CFY rats; chlordiazepoxide 1 mg/kg s.c.): 5.4 ± 0.68 mL
Water consumption (ml) punished situation (Male CFY rats; [12]): 4.1 ± 0.39 mL
Water consumption (ml) without punishment (Male CFY rats; [12]): 5.2 ± 0.72 mL
Water consumption (ml) punished situation (Male CFY rats; chlordiazepoxide 5 mg/kg s.c.): 2.5 ± 0.31 mL
Water consumption (ml) without punishment (Male CFY rats; chlordiazepoxide 5 mg/kg s.c.): 5.4 ± 0.62 mL
Water consumption (ml) punished situation (Male CFY rats; chlordiazepoxide 10 mg/kg s.c.): 1.6 ± 0.26 mL
Water consumption (ml) without punishment (Male CFY rats; chlordiazepoxide 10 mg/kg s.c.): 1.8 ± 0.30 mL
Ratio between the sedative and anxiolytic dose (Male CFY rats; conflict test): 100
Anxiolytic effect in presence of RO-15-1788 (selective benzodiazepine receptor antagonist) (Male CFY rats; conflict test): antagonized
Sedative dose range (Male CFY rats; subcutaneous, conflict test, unpunished rats): 10 mg/kg
Displacement of 3H-Diazepam from its receptor (benzodiazepine receptors): concentration dependent manner
IC50 value (benzodiazepine receptors): in the same range of concentration

From patent publication US4921960A, “Quinoline thioethers” (priority 1987, dated 1990)
